Experiments:
[1] = test system: mouse (dd-Y series); assay: in vivo analgesic activity by Randall Selitto method; conditions: subcutaneous administration to mouse, 1-50 mg/kg, in DMA: physiological saline (4:6); FIG. 2-5
Protocol: Adamantylated enkephalin derivatives a and b are subcutaneously administrated to a mouse, and an analgesic effect in the central nervous system was measured by Randall Selitto method. That is, the derivatives a and b were dissolved in a mixed solution of DMA: physiological saline solution (4:6) and about 100 μl of the solution was subcutaneously administrated to a mouse (dd-Y series: about 20 g) (1-50 mg/kg), and the analgesic effect was measured on every predetermined time interval after the administration by the Randall Selitto method.

[2] = test system: extirpated intestine of guinea pig; assay: suppressing effect on shrinkage of extirpated intestine of guinea pig by electric stimulations (method of Kosterlitz); format: cell-based; conditions: for ED50 (mol) (mean ± s.e.m.): suppression of electrically stimulated shrinkage of extirpated guinea pig intestine, in vitro
Protocol: Adamantylated enkephalin derivatives a and b obtained in Examples 1 and 2 were examined for in vivo analgesic effect and in vitro suppressing effect to shrinkage of extirpated intestine of guinea pig by electric stimulations.
A suppressing effect for the shrinkage of extirpated intestine of guinea pig of the adamantylated enkephalin derivatives a and b was measured in accordance with the method of Kosterlitz (H. W. Kosterlitz, A. A. Watterfield, Ann. Rev. Pharmacol., 15, 29, (1975)).

Molecule	analgesic activity [1]	Relative Potency [2]	suppression for shrinkage, antagonism by naloxon ([2]; extirpated guinea pig intestine)	ED50 (mol) (mean ± s.e.m.) [2]
H-Tyr-D.Ala-Gly-Phe-Leu-NH-Ada [Derivative b]	inferior to morphine hydrogen chloride but superior to the controls	2.13	showed suppression for shrinkage each of which was antagonized by naloxon	1.5 ± 0.71 × 10^-8 mol
CC(C)C[C@H](NC(=O)[C@H](Cc1ccccc1)NC(=O)CNC(=O)[C@@H](C)NC(=O)[C@@H](N)Cc1ccc(O)cc1)C(=O)O [[D-Ala^2] Leucine enkephalin, H-Tyr-D.Ala-Gly-Phe-Leu-OH, reference compound]		0.89		3.6 ± 1.17 × 10^-8 mol

Source: patent US5652335A, “Physiologically active substance well capable of permeating biomembrane” (Teikoku Seiyaku Kabushiki Kaisha, priority 1990, dated 1997)
